Converted amounts (≈) assume the structure as drawn. The source made the active and inactive calls. The rule behind the calls is not given here.

One assay deals with K562. As to the kind of experiment: Cytotoxicity against human K562 cells. Format: functional. The note with it: read-out: LC50 (the source's name).
Assay [1] in a line: Inhibition of FPTase at 10 ug/mL.
Assay [2] relates to HUVEC. Nature of the assay: Antiangiogenic activity in HUVEC assessed as inhibition of bFGF-induced tube formation at 10 ug/mL. Format: functional, cell-based. To be noted: Homo sapiens.
The nature of assay [3]: Inhibition of FPTase up to 20 ug/mL.
Assay [4] deals with HUVEC. Nature of the assay: Antiangiogenic activity in HUVEC assessed as inhibition of bFGF-induced tube formation up to 20 ug/mL. The class given is functional, cell-based. The note with it: Homo sapiens.

Turning to `C=C1CC/C=C(\C)CC[C@@H]2[C@H](CC/C=C(\C)CO)C(=O)OC[C@@H]12` [ACALYCIXENIOLIDE I], the CC50 in the assay with K562 worked out at 1.2 µg/mL (≈ 3.77 µM). In addition, the result (in assay [1]; in the assay with HUVEC [2]; in assay [3]; with HUVEC [4]) was inactive.
`C=C1CC/C=C(\C)CC[C@@H]2[C@H](CC/C=C/CO)C(=O)OC[C@@H]12` [ACALYCIXENIOLIDE L]: in the assay with K562, the CC50 amounted to 1.5 µg/mL (≈ 4.93 µM). Also, the result (in assay [1]; in the assay with HUVEC [2]; in assay [3]; in the assay on HUVEC [4]) was inactive.
Consider `C=C1CC[C@@H]2O[C@@]2(C)CC[C@@H]2[C@H](CCC=C(C)C)C(=O)OC[C@@H]12`, for which the result (in assay [1]; in the assay on HUVEC [2]; in assay [3]; with HUVEC [4]) was inactive.
For `C=C1CC/C=C(\C)CC[C@@H]2[C@H](C/C=C/C(C)(C)O)C(=O)OC[C@@H]12` [ACALYCIXENIOLIDE J], in the assay on K562, the CC50 was 2 µg/mL (≈ 6.28 µM). Besides, the result (in assay [1]; with HUVEC [2]; in assay [3]; in the assay with HUVEC [4]) was inactive.
As for `C=C=CCC(OC(C)=O)C1=CO[C@H](OC(C)=O)[C@H]2C(=C)CC[C@@H]3O[C@@]3(C)CC[C@H]12` (stereo partly specified), the inhibition (usually the change of the read-out against control, counted positive when it falls) in assay [1] stood at 82%. The outcome in the assay with HUVEC [2] was Active.
Consider `C=C1CC[C@@H]2O[C@@]2(C)CC[C@@H]2[C@H](CC/C=C(\C)C(=O)OC)C(=O)OC[C@@H]12` [ACALYCIXENIOLIDE H], for which the CC50 in the assay on K562 was found to be 3.9 µg/mL (≈ 10.8 µM). In addition, the result (in assay [1]; in the assay on HUVEC [2]; in assay [3]; in the assay with HUVEC [4]) was inactive.
Consider `C=C1CC/C=C(\C)CC[C@@H]2[C@H](CC/C=C\CO)C(=O)OC[C@@H]12` [ACALYCIXENIOLIDE K], for which, in the assay with K562, the CC50 amounted to 1.8 µg/mL (≈ 5.91 µM). Further, the outcome (in assay [1]; in the assay on HUVEC [2]; in assay [3]; with HUVEC [4]) was inactive.
Take `C=C1CC/C=C(\C)CC[C@@H]2/C(=C\C=C\C(C)(C)O)C(=O)OC[C@@H]12` [9-DEOXYXENIOLIDE A]: in the assay with K562, the CC50 turned out to be 0.04 µg/mL (≈ 0.126 µM). For the same compound, the result (in assay [1]; with HUVEC [2]; in assay [3]; with HUVEC [4]) was inactive.

Values taken from ChEMBL document CHEMBL1150824, “New xenicane diterpenoids from the gorgonian Acalycigorgia inermis” (2001).
